This is an account of results in article PMC7094222 (Febs Letters, 2015).

Holding throughout (assay type): biochemical, Human Coxsackievirus B3
Experiment [1] addresses T1, CVB3 3C^pro (Coxsackievirus B3, UniProt P03313). As to the kind of experiment: FRET-based enzyme assay of CVB3 3C^pro.
Experiment [2] deals with T1, CVB3 3C^pro. As to the kind of experiment: Enzyme kinetics study.
In experiment [3] the target is T1, CVB3 3C^pro. Briefly: Reversibility test by large and rapid dilution of enzyme-inhibitor complex. To be noted: 50-fold IC50 pre-incubated 30 min at 35 °C, then diluted 50-fold.

Structures are written as SMILES.

T1 sequence (P03313 1541-1723): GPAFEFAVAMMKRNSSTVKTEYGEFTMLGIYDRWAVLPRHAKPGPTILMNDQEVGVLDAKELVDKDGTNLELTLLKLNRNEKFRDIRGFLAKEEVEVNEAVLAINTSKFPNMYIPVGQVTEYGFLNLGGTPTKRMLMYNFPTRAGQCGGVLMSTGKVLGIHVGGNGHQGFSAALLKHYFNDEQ

Take `NC(CO)C(=O)N/N=C\c1ccc(O)c(O)c1O` (centres unmarked) [8a, (Z)-2-amino-3-hydroxy-N'-(2,3,4-trihydroxybenzylidene)propanehydrazide]: the IC50 (in general, the midpoint of a concentration-inhibition curve) against CVB3 3C^pro [1] turned out to be 2.72 µM. In other words, the single-digit micromolar range.
`NC(CO)C(=O)NNCc1ccc(O)c(O)c1` (centres unmarked) [9e, 2-amino-N'-(3,4-dihydroxybenzyl)-3-hydroxypropanehydrazide]: the inhibition (commonly the percentage by which the read-out fell short of the control) at 50 µM on CVB3 3C^pro [1] (read-out: % Inhibition 50 μM) is 56.2%.
With `NC(CO)C(=O)NNCc1ccc(O)c(O)c1O` (centres unmarked) [Benserazide, 2-amino-3-hydroxy-N'-(2,3,4-trihydroxybenzyl)propanehydrazide], the Ki (as a rule, the equilibrium dissociation constant of an inhibitor or competing ligand from its target) on CVB3 3C^pro [2] stood at 4.7 µM. Further, the “mechanism of the inhibition” value on CVB3 3C^pro [2] (inhibitor 0–10 μM, substrate 0–400 μM, V max reduced without a change in K m) is reported as “non-competitive inhibitor”. For the same compound, the reversibility of inhibition entry at CVB3 3C^pro [3] is given as “reversible pattern”.
